Data set [1] in a line: UV absorption of the compound in solution. Format: physicochemical.
Where [2] appears, read: solution in DMSO/CH2Cl2, at λmax.

SMILES strings stand for the structures.

With `CC12CCC(/C(=C\c3ccc(/C=C4/C(=O)C5(C)CCC4C5(C)C)cc3)C1=O)C2(C)C` [Example 5, 1,4-phenylenebis(3-methylidenecamphor)], the melting point (in general, the temperature of the solid-liquid transition) stood at 234 °C.
Take `CCCCC(CC)CNS(=O)(=O)CC12CCC(C(=Cc3ccc(C=C4C(=O)C5(CS(=O)(=O)NCC(CC)CCCC)CCC4C5(C)C)cc3)C1=O)C2(C)C` (stereo not drawn) [Example 2, 1,4-phenylenebis(2-ethylhexyl 3,3′-methylidenecamphor-10,10′-sulphonamide)]: the λmax in data set [1] (solution in CH2Cl2) is recorded as 342 nm. In data set [1] (solution in CH2Cl2, at λmax), the E1% is listed as 522 and the εmax is recorded as 41 000.
In data set [1] (solution in DMSO/CH2Cl2), `CCNS(=O)(=O)CC12CCC(C(=Cc3ccc(C=C4C(=O)C5(CS(=O)(=O)NCC)CCC4C5(C)C)cc3)C1=O)C2(C)C` [Example 1, 1,4-phenylenebis(ethyl 3,3′-methylidenecamphor-10,10′-sulphonamide)] yielded a λmax of 342 nm. In addition, in data set [1] (setting [2]), the E1% was determined as 654 and the εmax came out at 40350.
Turning to `CC12CCC(/C(=C\c3cccc(/C=C4/C(=O)C5(C)CCC4C5(C)C)c3)C1=O)C2(C)C` [Example 3, 1,3-phenylenebis(3-methylidenecamphor)], the melting point worked out at 152 °C.
For `C[Si](C)(C)CCCOc1ccc(/C=C2\CC/C(=C\c3ccc(OCCC[Si](C)(C)C)cc3)C2=O)cc1` [Example 8, 2,5-bis[4-(3-trimethylsilanylpropyloxy)-benzylidene]cyclopentanone], the melting point was in the range of 205 to 207 °C. For the same compound, the λmax in data set [1] (solution in CHCl3) worked out at 391 nm. Further, in data set [1] (solution in CHCl3, at λmax), the E1% was 940 and the εmax is 49 100.
In data set [1] (solution in CH2Cl3), `Cc1c(C)c(C=C2C(=O)C3(C)CCC2C3(C)C)c(C)c(C)c1C=C1C(=O)C2(C)CCC1C2(C)C` [Example 6, (2,3,5,6-tetramethyl)-1,4-phenylenebis-(3-methylidenecamphor)] gave a λmax of 286 nm. Also, in data set [1] (solution, at λmax), the E1% was 270 and the εmax was 12 200.
